Results published in patent publication US20240139167A1, “LYSOSOME-ASSOCIATED MEMBRANE PROTEIN TARGETING COMPOUNDS AND USES THEREOF” (HADASIT MEDICAL RESEARCH SERVICES AND DEVELOPMENT LTD., priority 2021, published 2024).

Legend:
Assay type in all cases: cell-based, human
[1] = tested on: APBD cells; assay: Proteomics (nano LC-MS/MS, LFQ)
Experimental: Sample preparation for MS analysis. Cell lysates in RIPA buffer containing protease inhibitors were clarified by centrifugation and […] of protein was used for protein precipitation by the chloroform/methanol method. The precipitated proteins were solubilized in 100 μl of 8 M urea, 10 mM DTT, 25 mM Tris-HCl pH 8.0 and incubated for 30 min at 22 ° C. Iodoacetamide (55 mM) was added, and samples were incubated for 30 min (22 ° C., in the dark), followed by addition of DTT (10 mM). Fifty μl of the samples was transferred into a new tube, diluted by the addition of 7 volumes of 25 mM Tris-HCl pH 8.0 and sequencing-grade modified Trypsin (Promega Corp., Madison, WI) was added (0.35 μg/sample) followed by incubation overnight at 37° C. with gentle agitation. The samples were acidified by addition of 0.2% formic acid and desalted on C18 home-made Stage tips. Peptide concentration was determined by Absorbance at 280 nm and 0.75 μg of peptides were injected into the mass spectrometer.
Nano LC-MS/MS analysis. MS analysis was performed using a Q Exactive-HF mass spectrometer (Thermo Fisher Scientific, Waltham, MA USA) coupled on-line to a nanoflow UHPLC instrument, Ultimate 3000 Dionex (Thermo Fisher Scientific, Waltham, MA USA). Peptides dissolved in 0.1% formic acid were separated without a trap column over a 120 min acetonitrile gradient run at a flow rate of 0.3 μl/min on a reverse phase 25-cm-long C18 column (75 μm ID, 2 μm, 100 Å, Thermo PepMapRSLC). The instrument settings were as previously described. Survey scans (300-1,650 m/z, target value 3E6 charges, maximum ion injection time 20 ms) were acquired and followed by higher energy collisional dissociation (HCD)-based fragmentation (normalized collision energy 27). A resolution of 60,000 was used for survey scans and up to 15 dynamically chosen most abundant precursor ions, with “peptide preferable” profile were fragmented (isolation window 1.6 m/z). The MS/MS scans were acquired at a resolution of 15,000 (target value 1E5 charges, maximum ion injection times 25 ms). Dynamic exclusion was 20 sec. Data were acquired using Xcalibur software (Thermo Scientific). To avoid a carryover, the column was washed with 80% acetonitrile, 0.1% formic acid for 25 min between samples.
MS data analysis. Mass spectra data were processed using the MaxQuant computational platform, version 1.6.14.0. Peak lists were searched against the Uniprot human FASTA sequence database from May 19, 2020, containing 49,974 entries. […] Relative protein quantification in MaxQuant was performed using the label-free quantification (LFQ) algorithm. […]
To validate the imaging-based analysis of the cell features modulated by the diseased state and by Compound 1, the inventors analyzed the effect of the disease and the treatment on protein expression. […]

[2] = tested on: APBD primary fibroblasts; assay: Autophagic flux (LC3II/LC3I with lysosomal inhibitors, p62)
Excerpt: FIGS. 6A-6E include bar graphs of autophagic flux, determined by the extent of lysosomal inhibitors-dependent increase in the ratio of lipidated to non-lipidated LC3 (LC3II/LC3I) (6A); representative TEM images of liver tissue from 9.5 month old Gbe^ys/ys mice treated with Compound 11, or 5% DMSO vehicle (6B), G: Glycogen (alpha particles) and polyglucosan (structures with variable electron densities), L: Lysosomes, M: Mitochondria; right panel: lysosomal glycogen stain was quantified by ImageJ “count particle” tool; micrograph of LAMP1 knocked down and control APBD primary skin fibroblasts treated or not with Compound 1 and lysosomal inhibitors (LI) and quantification of 3 experiments and results of Student's t-tests. *, p<0.1; **, p<0.05; ***, p<0.01 (6C); graphs of lysosomal pH changes determined in APBD primary fibroblasts transduced with lentiviruses encoding for GFP or GFP-shLAMP1 and treated or not with Compound 1 for 24 h and confocal microscope images of cells treated with Lysosensor and stained for PAS (6D); and bar graph of ATP production rate assay in LAMP1-KD and GFP (Control) cells treated for 24 h (chronic) or on assay (acute) with Compound 1 (6E).

[3] = tested on: skin fibroblasts derived from Gsd1a patients; assay: NAD+/NADH ratio, Sirt1 and p62 expression; settings: 50 μM, 24 h
Experimental: FIG. 21 includes vertical bar graphs showing skin fibroblasts derived from Gsd1a patients were treated with solvent or 50 μM Compound A for 24 h and analyzed for NAD+/NADH ratio by the Promega kit (left panel) and for Sirt1 (middle panel) and p62 (right panel) expression by western immunoblotting.
NAD+ and NADH are key precursors for the electron transfer chain, TCA cycle, glycolysis, amino acid synthesis, fatty acid synthesis, and nucleotide synthesis. The NAD+/NADH ratio reports the extent of overall catabolism and the balance between glycolysis and OxPhos. The increase in the NAD+/NADH ratio means acceleration of electron flow in the mitochondrial electron transport chain (note, not mitochondrial ATP production) and of glycolysis to better manage metabolic demands. Furthermore, Sirt1 induction, often associated with increased NAD+/NADH ratio, is a well-documented and innovative anti-aging, calorie restriction-mimic and anti-cancer therapeutic strategy (see for example Hyun et al., (2020)). Thus, the results in Gsd1a cells (FIG. 21), showing induction of the NAD+/NADH ratio, as well as Sirt1, indicate that 144DG11 is a promising therapy for a plethora of different metabolic disorders, aging-related complications, and cancer.

## COCCN(Cc1sccc1C)C(=O)c1cc(C)nc(O)c1 [Compound 1]
[1]
  number of proteins down-modulated by APBD and up-modulated by compound: 49
  number of proteins up-modulated by APBD and down-modulated by compound: 39
[1]; glycogen overladen (48 h starvation/24 h Gluc)
  share of all proteins modified: 1.3%
[1]; starved (48 h starvation)
  share of all proteins modified: 1.7%
[2]
  autophagic flux (sensitivity of LC3ii/LC3i ratio to lysosomal inhibitors): increased autophagic flux
  level of the autophagy substrate p62: lowering the level of the autophagy substrate p62
[3]
  NAD+/NADH ratio: induction
  Sirt1 expression: induction
  p62 expression: downmodulated
